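Protocol summary: plate cells (96-well), add compound at 5 concentrations, incubate 48 h, interpolate endpoints linearly. Here, GI50 denotes the concentration required for 50% inhibition of growth. Definition used: TGI = concentration required for complete inhibition of growth.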
Assays:
Experiment in all cases: NCI tumour cell line growth inhibition, 48 h
DU-145 prostate = test system: DU-145 prostate
HL-60(TB) leukemia = test system: HL-60(TB) leukemia
HS 578T breast = test system: HS 578T breast
LOX IMVI melanoma = test system: LOX IMVI melanoma
M14 melanoma = test system: M14 melanoma
RXF 393 renal = test system: RXF 393 renal
U251 CNS = test system: U251 CNS
UO-31 renal = test system: UO-31 renal
A549 NSCLC = test system: A549 NSCLC
CCRF-CEM leukemia = test system: CCRF-CEM leukemia

Structure (SMILES)	GI50 (DU-145 prostate) [µM]	TGI (DU-145 prostate) [µM]	GI50 (HL-60(TB) leukemia) [µM]	TGI (HL-60(TB) leukemia) [µM]	GI50 (HS 578T breast) [µM]	TGI (HS 578T breast) [µM]	GI50 (LOX IMVI melanoma) [µM]	TGI (LOX IMVI melanoma) [µM]	GI50 (M14 melanoma) [µM]	TGI (M14 melanoma) [µM]	GI50 (RXF 393 renal) [µM]	TGI (RXF 393 renal) [µM]	GI50 (U251 CNS) [µM]	TGI (U251 CNS) [µM]	GI50 (UO-31 renal) [µM]	TGI (UO-31 renal) [µM]	GI50 (A549 NSCLC) [µM]	TGI (A549 NSCLC) [µM]	GI50 (CCRF-CEM leukemia) [µM]	TGI (CCRF-CEM leukemia) [µM]
N#Cc1cnc2ccc(NCc3cnc[nH]3)cc2c1Nc1ccc(F)c(Cl)c1	2.27	> 100	15.2	> 100	4.79	> 100	5.62	> 100	14.3	> 100	7.03	> 100	8.96	> 100	3.52	> 100	–	–	–	–
CN1CCN(c2cc(F)c(NC3=C(Cl)C(=O)c4ncccc4C3=O)c(F)c2)CC1	1.45	2.94	1.65	5.46	2.02	5.67	1.35	2.84	1.82	3.39	1.64	3.1	1.8	3.44	1.39	2.72	4.21	16.3	–	–
CC(NC(=O)c1ccc(Cl)c(Cl)c1)c1ccc(-c2ccccc2)cc1 (stereo not drawn)	–	57.5	–	> 100	–	65.1	–	> 100	–	> 100	–	28	–	> 100	–	29.4	–	45.5	–	–
Oc1ccc(CCNc2nc3ccccc3c3[nH]c4ccccc4c23)cc1O	2.45	7.44	2.07	4.36	8.28	> 100	1.77	3.28	2.62	7.28	1.91	3.59	2.53	6.51	–	–	2.26	5.95	1.59	4.35
COc1ccc(CC(C)NCC(O)c2ccc(O)c(NC=O)c2)cc1 (stereo not drawn)	–	> 100	–	–	–	> 100	–	> 100	–	> 100	–	> 100	–	> 100	–	> 100	–	> 100	–	> 100
CSC(=Nc1ccc([N+](=O)[O-])cc1C#N)NC(=O)c1ccccc1	–	–	–	> 100	–	–	–	> 100	–	> 100	–	> 100	–	> 100	–	–	–	> 100	–	> 100
O=C(O)C1CCCN1 (stereo not drawn)	–	> 100	–	> 100	–	> 100	–	> 100	–	> 100	–	> 100	–	> 100	–	> 100	–	> 100	–	–
O=C(O)c1ccccc1NS(=O)(=O)c1ccc(Cl)cc1	–	–	–	–	–	–	–	> 100	–	> 100	–	> 100	–	> 100	–	> 100	–	> 100	–	> 100
CN(N=O)C(=O)NC(CCCCNC(=O)OCc1ccccc1)C(=O)OCc1ccccc1 (stereo not drawn)	–	–	–	48.7	–	–	–	37.1	–	36.9	–	61.8	–	> 100	–	38.3	–	> 100	–	57.1
CC(C)N1CCOC(c2ccc(O)c(O)c2)C1 (stereo not drawn)	–	–	–	> 100	–	–	–	> 100	–	> 100	–	> 100	–	–	–	> 100	–	> 100	–	> 100
CCN(CC)CC(C(=O)Nc1c(C)cccc1C)/C(C)=N\NC(=S)NN (stereo not drawn)	–	–	–	> 100	–	–	–	> 100	–	> 100	–	> 100	–	> 100	–	> 100	–	> 100	–	> 100
O=C(O)c1c2c(c(O)c3c1CN(C1CCCCC1)CO3)OCN(C1CCCCC1)C2	–	> 100	–	–	–	> 100	–	39.7	–	> 100	–	> 100	–	> 100	–	> 100	–	> 100	–	55.7
O=C(O)CN(CCN(CC(=O)O)CC(=O)O)CCN(CC(=O)O)CC(=O)O	2.94	8.82	2.12	5.01	2.09	56.7	3.22	11.6	5.29	21.5	2.07	4.85	4.14	21.2	–	–	1.62	3.5	3.18	> 100
Cc1cccc(-c2nc(=S)[nH][nH]2)c1	–	–	–	> 100	–	–	–	–	–	> 100	–	–	–	> 100	–	> 100	–	> 100	–	> 100
O=C1c2ccccc2C(=O)N1C/C=N/NS(=O)(=O)c1cccc([N+](=O)[O-])c1	–	–	–	> 100	–	–	–	> 100	–	> 100	–	> 100	–	> 100	–	> 100	–	> 100	–	> 100
NCCNCCNCc1c2ccccc2c(CNCCNCCN)c2ccccc12	–	–	–	> 100	–	–	–	> 100	–	> 100	–	> 100	–	> 100	–	> 100	–	> 100	–	> 100
CC[O-].CC[O-].[O-]c1ccccc1C=NC12CC3CC(CC(C3)C1)C2.[O-]c1ccccc1C=NC12CC3CC(CC(C3)C1)C2.[Ti+4]	–	–	52.4	> 100	–	–	57.8	> 100	> 100	> 100	53.9	> 100	> 100	> 100	92.3	> 100	> 100	> 100	11	> 100
CS(=O)(=O)N(CCC#N)c1ccc(/C=C2\N=C(c3ccccc3Cl)OC2=O)cc1	–	–	–	> 100	–	–	–	> 100	–	> 100	–	> 100	–	> 100	–	> 100	–	> 100	–	> 100
O=S1(=O)[C@H](c2ccccc2)c2c(-c3ccccc3)sc(-c3ccccc3)c2[C@@H]1c1ccccc1	–	–	–	> 100	–	–	–	> 100	–	> 100	–	> 100	–	> 100	–	> 100	–	> 100	–	> 100
CC1=NC2(C(=O)O)C3(C(=O)O)N=C(C)OC3(C(F)(F)F)C2(C(F)(F)F)O1 (stereo not drawn)	–	–	–	> 100	–	–	–	> 100	–	> 100	–	> 100	–	> 100	–	> 100	–	> 100	–	> 100
CCN(CC)C(=O)c1cccc2c(OC)ccc(OC)c12	–	–	–	> 100	–	–	–	> 100	–	> 100	–	> 100	–	> 100	–	> 100	–	> 100	–	> 100
